Results as given in PMC8943889, “Synthetic studies with the brevicidine and laterocidine lipopeptide antibiotics including analogues with enhanced properties and in vivo efficacy” (Chemical Science, 2022).
Values after ≈ are worked out from the molar mass of the structure shown. Read-outs that look alike come from different tables or passages of the source. Positions of bridges follow the written chain, without caps; N, C: chain ends. Non-standard residues stand in square brackets, D forms with d. Residues, ends and D or L forms follow the SMILES beside them. ξ: configuration not given here. *: point of attachment. Hexanoyl(4ξ-Me) = CCC(C)CCC(=O)*; dOrn = NCCC[C@@H](N)C(=O)O; Orn = NCCC[C@H](N)C(=O)O; Dap = NC[C@H](N)C(=O)O

Columns and labels:
Type in all cases: cell-based
P. aeruginosa ATCC 27853 = system: P. aeruginosa ATCC 27853
Method: (§1) Minimum inhibitory concentrations (MICs) were determined by broth microdilution according to CLSI guidelines in triplicate. Blood agar plates were inoculated with glycerol stocks of E. coli ATCC 25922, E. coli MCR-1 (clinical isolate from Utrecht Medical Centre, NL), E. coli EQAS MCR-2 (clinical isolate from Wageningen University and Research, NL), K. pneumoniae ATCC 11228, K. pneumoniae ATCC 13883, K. pneumonia 2048 (clnical isolate from Vrije Universiteit Amsterdam Medical Centre, NL), K. pneumonia JS-123 (clinical isolate from Utrecht Medical […]
(§2) (clinical isolate from Rijksinstituut voor Volksgezondheid en Milieu, NL), A. baumannii MDR (clinical isolate from Vrije Universiteit Amsterdam Medical Centre, NL), P. aeruginosa ATCC 27853, P. aeruginosa PAO1, P. aeruginosa NRZ-03961 (Reference strain from Das Nationale Referenzzentrum für gramnegative Krankenhauserreger, DE), P. aeruginosa M-120 (clinical isolate from Leiden University Medical Centre, NL) and S. aureus USA300 (clinical isolate from Texas Children's Hospital, USA). E. coli 25922 MCR1 was grown on LB agar supplemented with kanamycin. The inoculated agar plates were then incubated for 16 h at 37°C . Individually grown colonies were subsequently used to inoculate 3 mL aliquots of TSB that were then incubated at 37°C with shaking at 220 rpm. In parallel, the lipopeptide antibiotics to be assessed were serially diluted with Mueller-Hinton broth (MHB) in polypropylene 96-well plates (50 µL in each well).
(§3) Once the OD600 of the bacterial suspensions reached 0.5, the bacteria were diluted with MHB (final concentration 2 × 10^5 CFU mL−1) and added to the microplates containing the test compounds (50 µL to each well, final volume: 100 µL). The well-plates were sealed with an adhesive membrane and after 16 h of incubation at 37°C with shaking at 220 rpm the wells were visually inspected for bacterial growth. MIC values reported are based on three technical replicates and defined as the lowest concentration of the compound that prevented visible growth of bacteria. […]

P. aeruginosa PAO1 = system: P. aeruginosa PAO1
Method: as §1, §2, §3

A. baumannii 2018-006 = system: A. baumannii 2018-006
Method: as §1, §2, §3

K. pneumoniae ATCC 11228 = system: K. pneumoniae ATCC 11228
Method: as §1, §2, §3

P. aeruginosa M-120 = system: P. aeruginosa M-120
Method: as §1, §2, §3

E. coli ATCC 25922 MCR-1 = settings: Ec ATCC 25922 MCR-1; broth microdilution (CLSI), MHB, 16 h 37 °C, three technical replicates
Method: as §1, §2, §3

K. pneumoniae JS-123 = system: K. pneumoniae JS-123
Method: as §1, §2, §3

E. coli ATCC 25922 = system: E. coli ATCC 25922
Method: as §1, §2, §3

K. pneumoniae ATCC 13883 = system: K. pneumoniae ATCC 13883
Method: as §1, §2, §3

P. aeruginosa NRZ-03961 = system: P. aeruginosa NRZ-03961
Method: as §1, §2, §3

A. baumannii ATCC 17978 = system: A. baumannii ATCC 17978
Method: as §1, §2, §3

A. baumannii MDR = settings: Ab MDR; broth microdilution (CLSI), MHB, 16 h 37 °C, three technical replicates
Method: as §1, §2, §3

E. coli EQAS MCR-2 = settings: Ec EQAS MCR-2; broth microdilution (CLSI), MHB, 16 h 37 °C, three technical replicates
Method: as §1, §2, §3

A. baumannii ATCC 17961 = system: A. baumannii ATCC 17961
Method: as §1, §2, §3

K. pneumoniae 2048 = system: K. pneumoniae 2048
Method: as §1, §2, §3

S. aureus USA300 = system: S. aureus USA300
Method: as §1, §2, §3

[1] = system: E. coli MCR-1 (clinical isolate); settings: Ec MCR-1; broth microdilution (CLSI), MHB, 16 h 37 °C, three technical replicates
Method: as §1, §2, §3

In the case of CCC(C)CCC(=O)N[C@H](CC(N)=O)C(=O)N[C@H](Cc1ccc(O)cc1)C(=O)N[C@H](Cc1c[nH]c2ccccc12)C(=O)N[C@H](CCCN)C(=O)N[C@@H](CCCN)C(=O)NCC(=O)N[C@H](CCCN)C(=O)N[C@@H](Cc1c[nH]c2ccccc12)C(=O)N[C@@H]1C(=O)N[C@@H]([C@@H](C)CC)C(=O)NCC(=O)N[C@@H](CO)C(=O)O[C@@H]1C (stereo partly drawn) [Brev (1), brevicidine], the MIC (P. aeruginosa ATCC 27853; ATCC 27853, 16 h) is reported as ≤0.5 µg/mL, the MIC (P. aeruginosa PAO1; PAO1, 16 h) is reported as 2 µg/mL (≈ 1.32 µM) and the MIC (A. baumannii 2018-006; 2018-006, 16 h) is reported as 4 µg/mL (≈ 2.63 µM). It also gave an MIC (K. pneumoniae ATCC 11228; ATCC 11228, 16 h) of 1 to 2 µg/mL, an MIC (P. aeruginosa M-120; M-120, 16 h) of 2 to 4 µg/mL and an MIC (E. coli ATCC 25922 MCR-1) of 2 µg/mL (≈ 1.32 µM). For the same molecule, the MIC (K. pneumoniae JS-123; JS-123, 16 h) was 1 µg/mL (≈ 0.658 µM), the MIC (E. coli ATCC 25922; ATCC 25922, 16 h) was 1 to 2 µg/mL and the MIC (K. pneumoniae ATCC 13883; ATCC 13883, 16 h) was 1 µg/mL (≈ 0.658 µM). The MIC (P. aeruginosa NRZ-03961; NRZ-03961, 16 h) was 2 µg/mL (≈ 1.32 µM), the MIC (A. baumannii ATCC 17978; ATCC 17978, 16 h) was 4 µg/mL (≈ 2.63 µM) and the MIC (A. baumannii MDR) was 4 µg/mL (≈ 2.63 µM). For the same molecule, the MIC (E. coli EQAS MCR-2) was 2 µg/mL (≈ 1.32 µM), the MIC (A. baumannii ATCC 17961; ATCC 17961, 16 h) was 2 to 4 µg/mL and the MIC (K. pneumoniae 2048; 2048, 16 h) was 1 to 2 µg/mL. For the same molecule, the MIC (S. aureus USA300; USA300, 16 h) was 64 µg/mL (≈ 42.1 µM).

Work on CCC(C)CCC(=O)N[C@H](CC(N)=O)C(=O)N[C@H](Cc1ccc(O)cc1)C(=O)N[C@H](Cc1c[nH]c2ccccc12)C(=O)N[C@H](CCCN)C(=O)N[C@@H](CCCN)C(=O)NCC(=O)N[C@H](CCCN)C(=O)N[C@@H](Cc1c[nH]c2ccccc12)C(=O)N[C@H]1CNC(=O)[C@H](CO)NC(=O)CNC(=O)[C@H]([C@@H](C)CC)NC1=O (stereo partly drawn) [Dap9-Brev (5), Dap9-Brevicidamide] ({Hexanoyl(4ξ-Me)}-[dN][dY][dW][dOrn][Orn]G[dOrn]W[Dap]IGS; lactam 9-C) yielded an MIC (P. aeruginosa ATCC 27853; Pa ATCC 27853, broth microdilution (CLSI), MHB, 16 h 37 °C, three technical replicates) of 8 µg/mL (≈ 5.32 µM), an MIC (P. aeruginosa PAO1; Pa PAO1, broth microdilution (CLSI), MHB, 16 h 37 °C, three technical replicates) of 16 to 32 µg/mL and an MIC (A. baumannii 2018-006; Ab 2018-006, broth microdilution (CLSI), MHB, 16 h 37 °C, three technical replicates) of 8 µg/mL (≈ 5.32 µM). For the same molecule, the MIC (K. pneumoniae ATCC 11228; Kp ATCC 11228, broth microdilution (CLSI), MHB, 16 h 37 °C, three technical replicates) was 16 to 32 µg/mL, the MIC (P. aeruginosa M-120; Pa M-120, broth microdilution (CLSI), MHB, 16 h 37 °C, three technical replicates) was 16 µg/mL (≈ 10.6 µM) and the MIC (E. coli ATCC 25922 MCR-1) was 16 µg/mL (≈ 10.6 µM). For the same molecule, the MIC (K. pneumoniae JS-123; Kp JS-123, broth microdilution (CLSI), MHB, 16 h 37 °C, three technical replicates) was 8 µg/mL (≈ 5.32 µM), the MIC (E. coli ATCC 25922; Ec ATCC 25922, broth microdilution (CLSI), MHB, 2 × 10^5 CFU/mL, 16 h 37 °C, visual read-out, three technical replicates) was 8 to 16 µg/mL and the MIC (K. pneumoniae ATCC 13883; Kp ATCC 13883, broth microdilution (CLSI), MHB, 16 h 37 °C, three technical replicates) was 32 µg/mL (≈ 21.3 µM). It also gave an MIC (P. aeruginosa NRZ-03961; Pa NRZ-03961, broth microdilution (CLSI), MHB, 16 h 37 °C, three technical replicates) of 16 to 32 µg/mL, an MIC (A. baumannii ATCC 17978; Ab ATCC 17978, broth microdilution (CLSI), MHB, 16 h 37 °C, three technical replicates) of 16 µg/mL (≈ 10.6 µM) and an MIC (A. baumannii MDR) of 8 µg/mL (≈ 5.32 µM). It also gave an MIC (E. coli EQAS MCR-2) of 8 to 16 µg/mL, an MIC (A. baumannii ATCC 17961; Ab ATCC 17961, broth microdilution (CLSI), MHB, 16 h 37 °C, three technical replicates) of 4 µg/mL (≈ 2.66 µM) and an MIC (K. pneumoniae 2048; Kp 2048, broth microdilution (CLSI), MHB, 16 h 37 °C, three technical replicates) of 16 to 32 µg/mL. The MIC [1] was 8 to 16 µg/mL and the MIC (S. aureus USA300; Sa USA300, broth microdilution (CLSI), MHB, 16 h 37 °C, three technical replicates) was >64 µg/mL.

CCC(C)CCC(=O)N[C@H](CC(N)=O)C(=O)N[C@H](Cc1ccc(O)cc1)C(=O)N[C@H](Cc1c[nH]c2ccccc12)C(=O)N[C@H](CCCN)C(=O)N[C@@H](CCCN)C(=O)NCC(=O)N[C@H](CCCN)C(=O)N[C@@H](Cc1c[nH]c2ccccc12)C(=O)N[C@@H]1C(=O)N[C@@H]([C@@H](C)CC)C(=O)NCC(=O)N[C@@H](CO)C(=O)N[C@@H]1C (stereo partly drawn) [MeDap9-Brev (7)] showed an MIC (P. aeruginosa ATCC 27853; ATCC 27853, 16 h) of 2 to 4 µg/mL, an MIC (P. aeruginosa PAO1; PAO1, 16 h) of 4 µg/mL (≈ 2.63 µM) and an MIC (A. baumannii 2018-006; 2018-006, 16 h) of 16 µg/mL (≈ 10.5 µM). It also gave an MIC (K. pneumoniae ATCC 11228; ATCC 11228, 16 h) of 8 µg/mL (≈ 5.27 µM), an MIC (P. aeruginosa M-120; M-120, 16 h) of 4 µg/mL (≈ 2.63 µM) and an MIC (E. coli ATCC 25922 MCR-1) of 8 µg/mL (≈ 5.27 µM). The MIC (K. pneumoniae JS-123; JS-123, 16 h) was 4 to 8 µg/mL, the MIC (E. coli ATCC 25922; ATCC 25922, 16 h) was 16 µg/mL (≈ 10.5 µM) and the MIC (K. pneumoniae ATCC 13883; ATCC 13883, 16 h) was 8 µg/mL (≈ 5.27 µM). The MIC (P. aeruginosa NRZ-03961; NRZ-03961, 16 h) was 8 µg/mL (≈ 5.27 µM), the MIC (A. baumannii ATCC 17978; ATCC 17978, 16 h) was 16 µg/mL (≈ 10.5 µM) and the MIC (A. baumannii ATCC 17961; ATCC 17961, 16 h) was 8 to 16 µg/mL. For the same molecule, the MIC (K. pneumoniae 2048; 2048, 16 h) was 8 to 16 µg/mL, the MIC [1] was 8 µg/mL (≈ 5.27 µM) and the MIC (S. aureus USA300; USA300, 16 h) was >64 µg/mL.
